Source: patent US20250171405A1, “PYRAZOLYL COMPOUNDS AS KV7 CHANNEL ACTIVATORS” (Biohaven Therapeutics Ltd., priority 2022, published 2025)

Target: T1, Kv7.2/7.3 (Homo sapiens, UniProt O43525+O43526)
T1 construct: Kv7.3 is constitutive and Kv7.2 is tetracycline-induced
Assay: Kv7.2/7.3 Thallium Flux Assay (FluxOR II Green)
Type: cell-based
Conditions: single concentration of 10 μM; fluorescence at 90 sec normalized to positive control (retigabine, 30 μM); hKv7.2/7.3 cell line
Source text: The Thallium Flux Assay is used as a surrogate indicator of potassium channel activity.
The experimental protocol was adapted from the FluxOR™ II Green Potassium Ion Channel Assay User Guide (Pub. No. MAN0016084, Invitrogen). Conditions were optimized for the Kv7.2/7.3 cell line.
Cell Line: The hKV7.2/7.3 cell line was obtained from Chantest (cat. #CT6147).
Cell Culture: Kv7.2/7.3 cells were maintained in a media containing DMEM/F12; 50/50 (Fisher 11-330), 10% Fetal Bovine Serum (FBS) (Fisher 26-140), 100 units/mL Penicillin-Streptomycin (Fisher 15-140), 0.005 mg/ml Blasticidin (InvivoGen ant-bl-1), 0.5 mg/mL Geneticin (InvivoGen ant-gn-5), and 0.1 mg/mL Zeocin (Fisher R25001). One day prior to experimentation, cells were plated in 96 well clear bottom plates (Corning cat. #353219) in a media without Blasticidin, Geneticin, or Zeocin. In this cell line Kv7.3 channel expression is controlled by a constitutive promoter. Kv7.2 channel expression was induced by adding tetracycline (Sigma T7660) at a final concentration of 10 ng/mL overnight in a cell culture incubator at 37° C. and 5% CO2. On the day of assay, the cell culture medium in the 96-well plates was replaced by assay buffer containing the thallium-sensitive fluorescent sensor, FluxOR II Green prepared according to manufacturer's instructions. The 96-well plates were then incubated for 1 h at 37° C. Following the incubation, the FluxOR II Green-containing solution was replaced with extracellular solution.
Test Compound Plates: The test compound is diluted in a mixture of 0.1% DMSO/extracellular solution at a single concentration of 10 μM. Dilutions were made on a Biomek NXP (BECKMAN COULTER). Extracellular solution contained (in mM: 145 NaCl, 4 KCl, 2 CaCl2), 1 MgCl2, 10 HEPES, and 10 Glucose, pH 7.4)
Measurement and data analysis: Thallium-flux-mediated changes in intracellular fluorescence were made using a plate reader (Enspire, Perkin Elmer) set with an excitation wavelength of 475 nm and an emission wavelength of 530 nm. After a 15 sec baseline measurement, the stimulus buffer containing thallium and potassium was added to the 96-well plate containing FluxOR II Green-loaded cells and test compounds. Fluorescence values at 90 sec were normalized to the positive control (retigabine, 30 μM) and test compound activities were assigned categories according to the formula: “No Activity <0.15, “+” Moderate Activity 0.15-0.7, and “++” High Activity >0.7.

| Kv7.2/7.3 Activity | Compound |
| --- | --- |
| ++ (“++” High Activity ≥0.7) | O=C(Nc1n[nH]c(-c2ccc(Cl)s2)c1C1CCC1)C1CC(F)(F)C1 [Compound 2, N-(5-(5-chlorothiophen-2-yl)-4-cyclobutyl-1H-pyrazol-3-yl)-3,3-difluorocyclobutane-1-carboxamide] |
| − (“−” No Activity <0.15) | O=C(Nc1n[nH]c(-c2ccc(Cl)s2)c1C1CCC1)C1CSC1 [Compound 3, N-(5-(5-chlorothiophen-2-yl)-4-cyclobutyl-1H-pyrazol-3-yl)thietane-3-carboxamide] |
| ++ (“++” High Activity ≥0.7) | O=C(Nc1n[nH]c(-c2ccc(Cl)s2)c1C1CCC1)C1CC(C(F)(F)F)C1 (stereo not shown) [Compound 4, N-(5-(5-chlorothiophen-2-yl)-4-cyclobutyl-1H-pyrazol-3-yl)-3-(trifluoromethyl)cyclobutane-1-carboxamide] |

Continued, compound first:

| Compound | Kv7.2/7.3 Activity |
| --- | --- |
| C[C@@H](C(=O)Nc1n[nH]c(-c2ccc(Cl)s2)c1C1CCC1)C1(C(F)(F)F)CC1 (stereo in doubt) [Compound 5, N-(5-(5-chlorothiophen-2-yl)-4-cyclobutyl-1H-pyrazol-3-yl)-2-(1-(trifluoromethyl)cyclopropyl)propanamide] | + (“+” Moderate Activity 0.15-0.7) |
| O=C(CC1CC(F)(F)C1)Nc1n[nH]c(-c2ccc(F)cc2)c1C1CCC1 [Compound 1, N-(4-cyclobutyl-5-(4-fluorophenyl)-1H-pyrazol-3-yl)-2-(3,3-difluorocyclobutyl)acetamide] | ++ (“++” High Activity ≥0.7) |
| O=C(Nc1n[nH]c(-c2ccc(F)cc2)c1C1CCC1)C1CC(F)(F)C1 [Compound 6, N-(4-cyclobutyl-5-(4-fluorophenyl)-1H-pyrazol-3-yl)-3,3-difluorocyclobutane-1-carboxamide] | ++ (“++” High Activity ≥0.7) |
| O=C(Nc1[nH]nc(C2CC(F)(F)C2)c1C1CCC1)OC1CC(F)(F)C1 [Compound 7, 3,3-difluorocyclobutyl (4-cyclobutyl-3-(3,3-difluorocyclobutyl)-1H-pyrazol-5-yl)carbamate] | ++ (“++” High Activity ≥0.7) |
